Test results taken from US11272841B2, “Indicator fluids, systems, and methods for assessing movement of substances within, to or from a cerebrospinal fluid, brain or spinal cord compartment of a cranio-spinal cavity of a human” (BRAINWIDESOLUTIONS AS, priority 2017, dated 2022).
“And” between values parts separate entries of the source, which are not always exact repeats. Identical values can stand only once. Marks after values point to notes of the source that are not given here.

Test: Repeated standardized T1-weighted MRI: signal units (SU) in ROIs of CSF, venous space and brain tissue after intrathecal gadobutrol, iNPH versus reference patients (Tables 2-4, FIG. 14b, 16);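 for Max Increase in SU of T1 signal, numerical change: Gadobutrol 0.5 mL of 1.0 mmol/mL given intrathecally into CSF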;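 for Max Increase in SU of T1 signal, percentage change: Gadobutrol 0.5 mL of 1.0 mmol/mL given intrathecally into CSF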
Type: in vivo, human
Conditions: for Max Increase in SU of T1 signal, numerical change / Max Increase in SU of T1 signal, percentage change: one patient per row; for Average indication signal within brain tissue ROI: one individual, FIG. 14b
Procedure: The different features of Aspect 2 are based on novel in-vivo observations in humans. […] In the following paragraphs, these novel observations in humans are commented on in more detail. In these studies, the MRI contrast agent gadobutrol served as indicator fluid and MRI SUs were indication signals. MRI T1 weighted signal units were measured when gadobutrol was present within CSF after having been administered to the CSF compartment, and were compared with MR images having identical sequence parameter settings and with no gadobutrol present in CSF. […] With a MW of 605 Da, gadobutrol is a rather large molecule in comparison to the MW of water (H2O) molecule, which is 18 Da. Clearance of gadobutrol is then indicative of clearance of other substances with similar properties.
We explored both movement of the contrast agent within, to, and from the cranio-spinal cavity, including CSF, brain and spinal cord compartment, and from the cranio-spinal cavity to extra-cranial LNs. With gadobutrol present within CSF, blood level concentrations of contrast agents were determined at various time point. The repeated MRI acquisitions made it possible to create clearance curves for one or more pixels, defined by ROIs. ROIs were placed within CSF compartments, brain and spinal cord tissue compartments, and extracranial LN tissue compartments. By means of MRI, we could create graphic curves illustrating clearance of substances (clearance illustrating curves) for defined ROIs built up of a defied number of pixels for each individual. For details of said clearance curves, see FIG. 7. The establishment of clearance curves was dependent on repeated MRI acquisitions over a long period.
Using MRI SUs, we created clearance illustrating curves, see FIG. 7, for the individual patients as well as for groups of individuals. Tables 2-4 illustrate various examples of parameter values of the clearance illustrating curves.
Table 2, as discussed with FIG. 2, illustrates how maximum increase in SUs varies between individuals and patient groups. Tables 3 and 4 compare such clearance curve parameters from two patient groups, namely iNPH and reference (i.e. control) patients, illustrating inter-individual differences and differences between patient groups. These patient groups represent no limitation of the invention as it may be used in various patient groups such as Alzheimer's and dementia in general, brain tumor (e.g. astrocytoma), multiple sclerosis and inflammatory brain disease, stroke (brain infarction or bleeds), sleep disturbances, neurodegenerative disease, CSF circulation disorders, traumatic brain injury, neurometabolic diseases, glaucoma, chronic headache and migraine, and in assessment of ageing in general.
Even though perfect match of ROIs of repeated images may be difficult to obtain, the second aspect of the invention is facilitated by that image acquisition parameters at repeated MRI acquisitions are kept fixed and thus standardized. […] Further, to make best possible alignments of pixels, methods for alignment of repeated MRI acquisitions need to be implemented. Methods for alignment of repeated MRI images belong to prior art. Aids to improve alignment may incorporate landmark locations such as the cranial vault, pineal gland, and ventricular system.
Each image acquisition lasted 6 minutes and 29 seconds.

[1] = CSF space: Lateral Ventricle, iNPH
[2] = CSF space: Precentral sulcus, Reference
[3] = CSF space: Precentral sulcus, iNPH
[4] = CSF space: Sylvian fissure, Reference
[5] = CSF space: Sylvian fissure, iNPH
[6] = Central venous space: Sagittal sinus/confluence, Reference
[7] = Central venous space: Sagittal sinus/confluence, iNPH
[8] = Inferior frontal gyrus (IFG), REF
[9] = Inferior frontal gyrus (IFG), iNPH

Compound: O=C([O-])CN1CCN(CC(=O)[O-])CCN([C@H](CO)[C@H](O)CO)CCN(CC(=O)[O-])CC1.[Gd+3] (racemic) [gadobutrol]
- Clearance coefficient (SU/min) [1]: −0.05 ± 0.04 SU/min
- Clearance time [1]: 1115.1 ± 46.3 min
- Enhancement coefficient (SU/min) [1]: 0.41 SU/min
- Max increase (SU) [1]: 168.5 ± 99.8^b SU
- Max reduction (SU) [1]: −57.3 ± 48.9 SU
- Time to peak [1]: 843.4 ± 560.2 min
- Clearance coefficient (SU/min) (CSF space: Pons, Reference): −0.25 ± 0.08 SU/min
- Clearance time (CSF space: Pons, Reference): 1261.5 ± 137.0 min
- Enhancement coefficient (SU/min) (CSF space: Pons, Reference): 10.8 SU/min
- Max reduction (SU) (CSF space: Pons, Reference): −313.3 ± 105.3 SU
- Time to peak (CSF space: Pons, Reference): 159.8 ± 148.9 min
- Clearance coefficient (SU/min) (CSF space: Pons, iNPH): −0.15 ± 0.08^b SU/min
- Clearance time (CSF space: Pons, iNPH): 1207.9 ± 114.8 min
- Enhancement coefficient (SU/min) (CSF space: Pons, iNPH): 2.4 SU/min
- Max reduction (SU) (CSF space: Pons, iNPH): −177.9 ± 95.5^b SU
- Time to peak (CSF space: Pons, iNPH): 230.9 ± 98.4 min
- Enhancement coefficient (SU/min) [2]: 0.29 SU/min
- Max increase (SU) [2]: 87.8 ± 99.3 SU
- Time to peak [2]: 475.0 ± 601.9 min
- Enhancement coefficient (SU/min) [3]: 0.10 SU/min
- Max increase (SU) [3]: 131.1 ± 94.1 SU
- Time to peak (min) [3]: 1254.7 ± 483.8^b min
- Clearance coefficient (SU/min) [4]: −0.12 ± 0.06 SU/min
- Clearance time [4]: 1162.6 ± 78.1 min
- Enhancement coefficient (SU/min) [4]: 0.9 SU/min
- Max increase (SU) [4]: 204.2 ± 104.4 SU
- Max reduction (SU) [4]: −133.0 ± 68.4 SU
- Time to peak [4]: 258.6 ± 114.8 min
- Clearance coefficient (SU/min) [5]: −0.06 ± 0.05^a SU/min
- Clearance time [5]: 1123.7 ± 41.1 min
- Enhancement coefficient (SU/min) [5]: 0.57 SU/min
- Max increase (SU) [5]: 226.2 ± 100.2 SU
- Max reduction (SU) [5]: −68.0 ± 51.2^a SU
- Time to peak (min) [5]: 689.0 ± 536.3^a min
- Clearance coefficient (SU/min) [6]: −0.008 ± 0.003 SU/min
- Clearance time [6]: 1247.3 ± 175.9 min
- Enhancement coefficient (SU/min) [6]: 0.41 SU/min
- Max increase (SU) [6]: 7.4 ± 9.6 SU
- Max reduction (SU) [6]: −9.5 ± 3.9 SU
- Time to peak [6]: 524.4 ± 591.3 min
- Clearance coefficient (SU/min) [7]: −0.01 ± 0.006 SU/min
- Clearance time [7]: 1287.4 ± 150.9 min
- Enhancement coefficient (SU/min) [7]: 0.16 SU/min
- Max increase (SU) [7]: 8.1 ± 8.0 SU
- Max reduction (SU) [7]: −12.1 ± 6.7 SU
- Time to peak [7]: 350.2 ± 457.3 min
- Max Increase in SU of T1 signal, numerical change (Frontal horn, REF): 23 SU and 7 (7%) SU and 4 SU and 4 (4%) SU and 3 (3%) SU and 9 SU and 17 SU
- Max Increase in SU of T1 signal, percentage change (Frontal horn, REF): 37% and 7 (7%) and 3% and 4 (4%) and 3 (3%) and 8% and 21%
- Max Increase in SU of T1 signal, numerical change (Frontal horn, iNPH): 13 SU and 103 SU and 35 SU and 76 SU and 92 SU and 50 SU and 2 (2%) SU and 49 SU and 53 SU and 42 SU and 8 SU and 19 SU and 21 SU
- Max Increase in SU of T1 signal, percentage change (Frontal horn, iNPH): 15% (2×) and 204% and 40% and 159% and 131% and 98% and 2 (2%) and 126% and 110% and 70% and 22% and 23%
- Max Increase in SU of T1 signal, numerical change [8]: 68 SU and 5 (5%) SU and 24 SU and 13 SU and 23 SU and 37 SU and 18 SU
- Max Increase in SU of T1 signal, percentage change [8]: 80% and 5 (5%) and 27% and 14% and 25% and 41% and 21%
- Max Increase in SU of T1 signal, numerical change [9]: 70 SU and 56 SU and 32 SU and 51 SU and 74 SU and 21 SU and 24 SU and 36 SU and 59 SU and 10 SU (2×) and −1 (−1%) SU and 25 SU
- Max Increase in SU of T1 signal, percentage change [9]: 83% and 68% (2×) and 38% and 63% and 95% and 23% and 31% and 46% and 12% and −1 (−1%) and 11% and 28%
- Max Increase in SU of T1 signal, numerical change (Precentral gyrus, REF): 10 SU and 1 (1%) SU and 8 SU and 2 (2%) SU and 6 SU and 34 SU and 3 SU
- Max Increase in SU of T1 signal, percentage change (Precentral gyrus, REF): 12% and 1 (1%) and 9% and 2 (2%) and 7% and 41% and 4%
- Max Increase in SU of T1 signal, numerical change (Precentral gyrus, iNPH): 28 SU and 7 SU and 7 (7%) SU and 2 (2%) SU (2×) and 18 SU and 5 (5%) SU and 8 SU and 2 SU and 6 SU (2×) and 4 SU and 3 SU
- Max Increase in SU of T1 signal, percentage change (Precentral gyrus, iNPH): 32% and 8% and 7 (7%) and 2 (2%) (2×) and 22% and 5 (5%) and 10% and 3% and 7% (2×) and 5% and 4%
- Max Increase in SU of T1 signal, numerical change (Thalamus, REF): 23 SU and 4 (4%) SU and 3 SU and 2 (2%) SU and 13 (13%) SU (2×) and 8 SU
- Max Increase in SU of T1 signal, percentage change (Thalamus, REF): 26% and 4 (4%) and 2% and 2 (2%) and 13 (13%) (2×) and 9%
- Max Increase in SU of T1 signal, numerical change (Thalamus, iNPH): 16 SU and 23 SU and 9 SU (2×) and 14 SU and 25 SU and 4 (4%) SU and 10 SU and 19 SU and 7 SU and 2 (2%) SU and 12 SU (2×)
- Max Increase in SU of T1 signal, percentage change (Thalamus, iNPH): 18% and 24% and 11% (2×) and 17% and 28% and 4 (4%) and 12% and 21% and 8% and 2 (2%) and 14% and 13%
- Max Increase in SU of T1 signal, numerical change (brain tissue Pons, REF): 20 SU and 5 (5%) SU (2×) and 3 (3%) SU and 9 (9%) SU and 7 (7%) SU and 9 SU
- Max Increase in SU of T1 signal, percentage change (brain tissue Pons, REF): 21% and 5 (5%) (2×) and 3 (3%) and 9 (9%) and 7 (7%) and 10%
- Max Increase in SU of T1 signal, numerical change (brain tissue Pons, iNPH): 17 (17%) SU and 24 (24%) SU and 15 SU and 21 SU and 14 (14%) SU and 4 (4%) SU (2×) and 9 SU (2×) and 18 (18%) SU and 3 (3%) SU and 2 (2%) SU and 6 (6%) SU
- Max Increase in SU of T1 signal, percentage change (brain tissue Pons, iNPH): 17 (17%) and 24 (24%) and 16% and 24% and 14 (14%) and 4 (4%) (2×) and 10% (2×) and 18 (18%) and 3 (3%) and 2 (2%) and 6 (6%)
- SU within ROI (entorhinal cortex, FIG. 16h, intrathecal gadobutrol present for 24 hours (46 SU without)): 136 SU
- Average indication signal within brain tissue ROI (3 hours after intrathecal gadobutrol (80 SU without gadobutrol)): 83 SU
- Average indication signal within brain tissue ROI (9 hours after intrathecal gadobutrol): 103 SU
- Average indication signal within brain tissue ROI (24 hours after intrathecal gadobutrol): 107 SU
- SU within ROI (subcortical area of entorhinal cortex, FIG. 16f, intrathecal gadobutrol present for 24 hours (109 SU without)): 180 SU
